These results are taken from ChEMBL document CHEMBL5532652, “Design and synthesis of pterostilbene derivatives bearing triazole moiety that might treat DSS-induced colitis in mice through modulation of NF-κB/MAPK signaling pathways” (Eur J Med Chem, 2024).

The subject of data set [1] is RAW264.7. The data set is described as follows: Anti-inflammatory activity in LPS-stimulated mouse RAW264.7 cells assessed as inhibition of p38 phosphorylation preincubated with compound for 1 hr followed by LPS stimulation and measured after 30 mins by Western blot analysis. The conditions noted are these: dose 0.5-2 µM, time 1.5 hrs. Format: functional, cell-based. On the technique in general: A western blot detects proteins with antibodies after separation by electrophoresis.

Data set [2] is described as follows: Toxicity in C57BL/6 mouse assessed as reduction in disease index at 20 mg/kg, po measured for 7 days. The class given is organism-based. The conditions noted are these: in vivo, 168 h, time 7 day.
Data set [3] can be described thus: Acute toxicity in C57BL/6 mouse assessed as kidney damage at 1000 mg/kg, po measured for 14 days. The settings on record: in vivo, 336 h, time 14 day. Format: organism-based.
Data set [4] relates to Mus musculus. The data set is described as follows: Anti-inflammatory activity against DSS-induced acute colitis C57BL/6J mouse model assessed as reduction in IL-1beta level in colon at 10 to 20 mg/kg, po measured for 7 days by ELISA analysis. Format: functional, organism-based. The conditions noted are these: dose 10-20 mg/kg, time 7.0 day. On the technique in general: An ELISA detects its analyte on a solid surface through an enzyme-linked reagent.

The subject of data set [5] is RAW264.7. The data set is described as follows: Anti-inflammatory activity in LPS-stimulated mouse RAW264.7 cells assessed as reduction in p38 level at 0.5 to 2 uM preincubated with compound for 1 hr followed by LPS stimulation and measured after 30 mins by Western blot analysis. Format: functional, cell-based. The settings on record: dose 0.5-2 µM, time 1.5 hrs.
Data set [6] concerns Mus musculus. The data set is described as follows: Anti-inflammatory activity against DSS-induced acute colitis C57BL/6J mouse model assessed as reduction in MPO level in colon at 10 to 20 mg/kg, po measured for 7 days. Format: functional, organism-based. The settings on record: dose 10-20 mg/kg, time 7.0 day.
Data set [7] in a line: Acute toxicity in C57BL/6 mouse assessed as lung damage at 1000 mg/kg, po measured for 14 days. Format: organism-based. The settings on record: in vivo, 336 h, time 14 day.
Data set [8] is described as follows: Acute toxicity in female C57BL/6 mouse assessed as effect on fur laxity at 1000 to 2000 mg/kg, po measured for 14 days. The class given is organism-based. The conditions noted are these: in vivo, 336 h, dose 1000-2000 mg/kg, time 14 day.
Data set [9] can be described thus: Acute toxicity in female C57BL/6 mouse assessed as anorexia at 1000 to 2000 mg/kg, po measured for 14 days. Format: organism-based. The conditions noted are these: in vivo, 336 h, dose 1000-2000 mg/kg, time 14 day.
Data set [10] relates to Mus musculus. The experiment in a line: Anti-inflammatory activity against DSS-induced acute colitis C57BL/6J mouse model assessed as reduction in edema at 10 to 20 mg/kg, po measured for 7 days. Format: functional, organism-based. The conditions noted are these: dose 10-20 mg/kg, time 7.0 day.

Activity calls are given as the source filed them. The rule behind the calls is not given here.

Take `C=CCOc1ccc(/C=C/c2cc(OC)cc(OC)c2-c2cnnn2C(=O)NCCCl)cc1`: the Activity result in the data set with RAW264.7 [1] was “Dose-Dependent Effect”; in [2], “Non-Toxic”; in [3], “Non-Toxic”; in [7], “Non-Toxic”; in data set [8] it was “Non-Toxic”; in [9], “Non-Toxic”. In addition, the result with Mus musculus [4], in the data set on RAW264.7 [5], in the data set with Mus musculus [6] and with Mus musculus [10] was Active.
